Laboratory results reported in patent publication US7507730B2, “Substituted pyrazolo[1,5-a]pyrimidines as potassium channel activators” (Bristol-Myers Squibb Company, priority 2005, dated 2009).
pIC50: −log10 of the molar value. Values belong to the compound of their own block, whether it stands above or below them.

Molecular target: Kv1.5 (Homo sapiens, UniProt P22460)
Test: Kv1.5 inhibition assay (IKur inhibitor assay per cited references)
Type: cell-based
Conditions: for inhibition at 0.3 µM / Kv1.5% inhibition: at 0.3 μM; for pIC50: read-out: Kv1.5 IC50
Description: Assays to determine the degree of activity of a compound as an IKur inhibitor are well known in the art and are described in references such as J. Gen. Physiol. Apr.; 101 (4):513-43, and Br. J. Pharmacol. 1995 May; 115(2):267-74.

Sequence of Kv1.5 (P22460 whole entry): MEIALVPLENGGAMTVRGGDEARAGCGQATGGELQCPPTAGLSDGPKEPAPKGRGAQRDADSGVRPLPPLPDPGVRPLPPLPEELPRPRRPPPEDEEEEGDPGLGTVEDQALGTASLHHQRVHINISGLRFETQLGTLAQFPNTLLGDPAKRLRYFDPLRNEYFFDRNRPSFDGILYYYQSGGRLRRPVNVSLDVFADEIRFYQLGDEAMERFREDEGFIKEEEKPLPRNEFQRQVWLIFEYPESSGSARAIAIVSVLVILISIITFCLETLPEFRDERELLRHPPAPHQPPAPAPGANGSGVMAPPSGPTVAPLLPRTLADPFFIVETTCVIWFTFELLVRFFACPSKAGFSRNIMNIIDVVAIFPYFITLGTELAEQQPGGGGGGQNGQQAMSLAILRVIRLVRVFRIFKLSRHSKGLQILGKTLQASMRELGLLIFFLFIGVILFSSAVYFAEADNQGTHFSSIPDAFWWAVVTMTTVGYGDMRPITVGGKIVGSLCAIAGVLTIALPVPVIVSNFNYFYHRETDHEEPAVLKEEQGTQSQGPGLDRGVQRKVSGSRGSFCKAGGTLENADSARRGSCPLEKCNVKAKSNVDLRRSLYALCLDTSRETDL

SMILES: CCCS(=O)(=O)N(C(=O)C1=C(C)Nc2cc(C(F)(F)F)nn2C1c1ccc(Cl)c(Cl)c1)C1CC1 (racemic) [Example 88, N-Cyclopropyl-7-(3,4-dichlorophenyl)-5-methyl-N-(propylsulfonyl)-2-(trifluoromethyl)-4,7-dihydropyrazolo[1,5-a]pyrimidine-6-carboxamide]
inhibition at 0.3 µM: 71%

SMILES: Cc1nc2cc(C(F)(F)F)nn2c(-c2ccc(Cl)c(Cl)c2)c1C(=O)N(C)S(=O)(=O)c1ccccc1 (racemic) [Example 92, 7-(3,4-Dichlorophenyl)-N,5-dimethyl-N-(phenylsulfonyl)-2-(trifluoromethyl)pyrazolo[1,5-a]pyrimidine-6-carboxamide]
inhibition at 0.3 µM: 41%

SMILES: CC1=C(S(=O)(=O)c2ccc(Cl)cc2)C(c2ccc(Cl)c(Cl)c2)n2nccc2N1 (single isomer, unassigned) [Example 2 Isomer 1, 6-(4-Chlorophenylsulfonyl)-7-(3,4-dichlorophenyl)-5-methyl-4,7-dihydropyrazolo[1,5-a]pyrimidine]
pIC50: 7.04

SMILES: CC1=C(S(=O)(=O)c2ccc(Cl)cc2)C(c2ccc(Cl)c(Cl)c2)n2nccc2N1 (single isomer, unassigned) [Example 2 Isomer 2, 6-(4-Chlorophenylsulfonyl)-7-(3,4-dichlorophenyl)-5-methyl-4,7-dihydropyrazolo[1,5-a]pyrimidine]
pIC50: 7.43

SMILES: CC1=C(S(=O)(=O)c2ccccc2)C(c2ccc(Cl)c(Cl)c2)n2nc(C)cc2N1 (single isomer, unassigned) [Example 3 Isomer 1, 7-(3,4-Dichlorophenyl)-2,5-dimethyl-6-(phenylsulfonyl)-4,7-dihydropyrazolo[1,5-a]pyrimidine]
pIC50: 7.39

SMILES: CC1=C(S(=O)(=O)c2ccccc2)C(c2ccc(Cl)c(Cl)c2)n2nc(C)cc2N1 (single isomer, unassigned) [Example 3 Isomer 2, 7-(3,4-Dichlorophenyl)-2,5-dimethyl-6-(phenylsulfonyl)-4,7-dihydropyrazolo[1,5-a]pyrimidine]
pIC50: 6.53

SMILES: CC1=C(S(=O)(=O)c2ccccc2)C(c2ccc(Cl)c(F)c2)n2nc(C)cc2N1 (single isomer, unassigned) [Example 7 Isomer 1, 7-(4-Chloro-3-fluorophenyl)-2,5-dimethyl-6-(phenylsulfonyl)-4,7-dihydropyrazolo[1,5-a]pyrimidine]
Kv1.5% inhibition: 90.8%

SMILES: CC1=C(S(=O)(=O)c2ccccc2)C(c2ccc(Cl)c(F)c2)n2nc(C)cc2N1 (single isomer, unassigned) [Example 7 Isomer 2, 7-(4-Chloro-3-fluorophenyl)-2,5-dimethyl-6-(phenylsulfonyl)-4,7-dihydropyrazolo[1,5-a]pyrimidine]
Kv1.5% inhibition: 32.4%

SMILES: COc1ccc(S(=O)(=O)C2=C(C)Nc3cc(C)nn3C2c2ccc(Cl)c(Cl)c2)cc1 (single isomer, unassigned) [Example 8 Isomer 1, 7-(3,4-Dichlorophenyl)-6-(4-methoxyphenylsulfonyl)-2,5-dimethyl-4,7-dihydropyrazolo[1,5-a]pyrimidine]
pIC50: 7.64

SMILES: COc1ccc(S(=O)(=O)C2=C(C)Nc3cc(C)nn3C2c2ccc(Cl)c(Cl)c2)cc1 (single isomer, unassigned) [Example 8 Isomer 2, 7-(3,4-Dichlorophenyl)-6-(4-methoxyphenylsulfonyl)-2,5-dimethyl-4,7-dihydropyrazolo[1,5-a]pyrimidine]
pIC50: 6.76

SMILES: CC1=C(S(=O)(=O)C2CCCCC2)C(c2ccc(Cl)c(Cl)c2)n2nc(C)cc2N1 (single isomer, unassigned) [Example 10 Isomer 1, 6-(Cyclohexylsulfonyl)-7-(3,4-dichlorophenyl)-2,5-dimethyl-4,7-dihydropyrazolo[1,5-a]pyrimidine]
pIC50: 7.11

SMILES: CC1=C(S(=O)(=O)C2CCCCC2)C(c2ccc(Cl)c(Cl)c2)n2nc(C)cc2N1 (single isomer, unassigned) [Example 10 Isomer 2, 6-(Cyclohexylsulfonyl)-7-(3,4-dichlorophenyl)-2,5-dimethyl-4,7-dihydropyrazolo[1,5-a]pyrimidine]
inhibition at 0.3 µM: 59.3%

SMILES: CC1=C(S(=O)(=O)c2ccccn2)C(c2ccc(Cl)c(Cl)c2)n2nc(C)cc2N1 (single isomer, unassigned) [Example 11 Isomer 1, 7-(3,4-Dichlorophenyl)-2,5-dimethyl-6-(pyridin-2-ylsulfonyl)-4,7-dihydropyrazolo[1,5-a]pyrimidine]
Kv1.5% inhibition: 72.5%

SMILES: CC1=C(S(=O)(=O)c2ccccn2)C(c2ccc(Cl)c(Cl)c2)n2nc(C)cc2N1 (single isomer, unassigned) [Example 11 Isomer 2, 7-(3,4-Dichlorophenyl)-2,5-dimethyl-6-(pyridin-2-ylsulfonyl)-4,7-dihydropyrazolo[1,5-a]pyrimidine]
Kv1.5% inhibition: 21.5%

SMILES: COc1ccc(S(=O)(=O)C2=C(C)Nc3cc(C)nn3C2c2cccc(Cl)c2)cc1 (single isomer, unassigned) [Example 17 Isomer 1, 7-(3-Chlorophenyl)-6-(4-methoxyphenylsulfonyl)-2,5-dimethyl-4,7-dihydropyrazolo[1,5-a]pyrimidine]
pIC50: 6.59

SMILES: COc1ccc(S(=O)(=O)C2=C(C)Nc3cc(C)nn3C2c2cccc(Cl)c2)cc1 (single isomer, unassigned) [Example 17 Isomer 2, 7-(3-Chlorophenyl)-6-(4-methoxyphenylsulfonyl)-2,5-dimethyl-4,7-dihydropyrazolo[1,5-a]pyrimidine]
inhibition at 0.3 µM: 18.1%

SMILES: CCCCS(=O)(=O)C1=C(C)Nc2cc(C)nn2C1c1ccc(Cl)c(Cl)c1 (single isomer, unassigned) [Example 18 Isomer 1, 6-(Butylsulfonyl)-7-(3,4-dichlorophenyl)-2,5-dimethyl-4,7-dihydropyrazolo[1,5-a]pyrimidine]
Kv1.5% inhibition: 84.6%

SMILES: CCCCS(=O)(=O)C1=C(C)Nc2cc(C)nn2C1c1ccc(Cl)c(Cl)c1 (single isomer, unassigned) [Example 18 Isomer 2, 6-(Butylsulfonyl)-7-(3,4-dichlorophenyl)-2,5-dimethyl-4,7-dihydropyrazolo[1,5-a]pyrimidine]
Kv1.5% inhibition: 28.8%

SMILES: COc1ccc(S(=O)(=O)C2=C(C)Nc3cc(C)nn3C2c2ccc(Cl)cc2)cc1 (single isomer, unassigned) [Example 19 Isomer 1, 7-(4-Chlorophenyl)-6-(4-methoxyphenylsulfonyl)-2,5-dimethyl-4,7-dihydropyrazolo[1,5-a]pyrimidine]
pIC50: 7.26

Further lines, results first:

inhibition at 0.3 µM: 40%
SMILES: CC1=C(C(=O)N(C)S(=O)(=O)c2ccc(Cl)cc2)C(c2ccc(Cl)c(Cl)c2)n2nc(C(F)(F)F)cc2N1 (racemic) [Example 89, N-(4-Chlorophenylsulfonyl)-7-(3,4-dichlorophenyl)-N,5-dimethyl-2-(trifluoromethyl)-4,7-dihydropyrazolo[1,5-a]pyrimidine-6-carboxamide]

Kv1.5% inhibition: 98%
SMILES: CC1=C(S(=O)(=O)c2ccc(F)cc2)C(c2ccc(Cl)c(Cl)c2)n2nc(C)cc2N1 (single isomer, unassigned) [Example 1 Isomer 1, 7-(3,4-Dichlorophenyl)-6-(4-fluorophenylsulfonyl)-2,5-dimethyl-4,7-dihydropyrazolo[1,5-a]pyrimidine]

Kv1.5% inhibition: 48%
SMILES: CC1=C(S(=O)(=O)c2ccc(F)cc2)C(c2ccc(Cl)c(Cl)c2)n2nc(C)cc2N1 (single isomer, unassigned) [Example 1 Isomer 2, 7-(3,4-Dichlorophenyl)-6-(4-fluorophenylsulfonyl)-2,5-dimethyl-4,7-dihydropyrazolo[1,5-a]pyrimidine]

pIC50: 6.74
SMILES: CC1=C(S(=O)(=O)c2ccc(Cl)cc2)C(c2ccc(Cl)c(Cl)c2)n2nc(C(F)(F)F)cc2N1 (single isomer, unassigned) [Example 4 Isomer 1, 6-(4-Chlorophenylsulfonyl)-7-(3,4-dichlorophenyl)-5-methyl-2-(trifluoromethyl)-4,7-dihydropyrazolo[1,5-a]pyrimidine]

inhibition at 0.3 µM: 36.2%
SMILES: CC1=C(S(=O)(=O)c2ccc(Cl)cc2)C(c2ccc(Cl)c(Cl)c2)n2nc(C(F)(F)F)cc2N1 (single isomer, unassigned) [Example 4 Isomer 2, 6-(4-Chlorophenylsulfonyl)-7-(3,4-dichlorophenyl)-5-methyl-2-(trifluoromethyl)-4,7-dihydropyrazolo[1,5-a]pyrimidine]

pIC50: 7.32
SMILES: CC1=C(S(=O)(=O)c2ccc(C)cc2)C(c2ccc(Cl)c(Cl)c2)n2nc(C)cc2N1 (single isomer, unassigned) [Example 5 Isomer 1, 7-(3,4-Dichlorophenyl)-2,5-dimethyl-6-tosyl-4,7-dihydropyrazolo[1,5-a]pyrimidine]

pIC50: 6.88
SMILES: CC1=C(S(=O)(=O)c2ccc(C)cc2)C(c2ccc(Cl)c(Cl)c2)n2nc(C)cc2N1 (single isomer, unassigned) [Example 5 Isomer 2, 7-(3,4-Dichlorophenyl)-2,5-dimethyl-6-tosyl-4,7-dihydropyrazolo[1,5-a]pyrimidine]

pIC50: 6.63
SMILES: CC1=C(S(=O)(=O)c2ccc(C(F)(F)F)cc2)C(c2ccc(Cl)c(Cl)c2)n2nc(C)cc2N1 (single isomer, unassigned) [Example 9 Isomer 1, 7-(3,4-Dichlorophenyl)-2,5-dimethyl-6-(4-(trifluoromethyl)phenylsulfonyl)-4,7-dihydropyrazolo[1,5-a]pyrimidine]

inhibition at 0.3 µM: 59.7%
SMILES: CC1=C(S(=O)(=O)c2ccc(C(F)(F)F)cc2)C(c2ccc(Cl)c(Cl)c2)n2nc(C)cc2N1 (single isomer, unassigned) [Example 9 Isomer 2, 7-(3,4-Dichlorophenyl)-2,5-dimethyl-6-(4-(trifluoromethyl)phenylsulfonyl)-4,7-dihydropyrazolo[1,5-a]pyrimidine]

pIC50: 6.85
SMILES: CC1=C(S(=O)(=O)c2ccc(F)cc2)C(c2ccc(Cl)c(Cl)c2)n2nc(C(F)(F)F)cc2N1 (single isomer, unassigned) [Example 12 Isomer 1, 7-(3,4-Dichlorophenyl)-6-(4-fluorophenylsulfonyl)-5-methyl-2-(trifluoromethyl)-4,7-dihydropyrazolo[1,5-a]pyrimidine]
